Source: patent USRE40086E1, “Method for treating bacterial infection with novel 7-substituted-9-substituted amino 6-demethyl-6-deoxytetracyclines” (Wyeth Holdings Corporation, priority 1991, dated 2008)
Converted amounts (≈) assume the structure as drawn.

Experiments:
Experiment in all cases: MIC, agar dilution
Format in all cases: cell-based
E. coli ATCC 25922 = settings: E. coli ATCC 25922
[1] = test system: S. aureus IVES 1983 (meth. resistant); settings: S. aureus IVES 1983 (meth. resistant)
E. coli UBMS 88-1 (tetB) = settings: E. coli UBMS 88-1 (tetB)
[2] = test system: S. aureus UBMS 90-3 (Sensitive); settings: S. aureus UBMS 90-3 (Sensitive)
[3] = test system: S. aureus UBMS 88-5 (tetM); settings: S. aureus UBMS 88-5 (tetM)
[4] = test system: S. haemolyticus AVAH 88-3; settings: S. haemolyticus AVAH 88-3
[5] = test system: S. aureus IVES 2943 (meth. resistant); settings: S. aureus IVES 2943 (meth. resistant)
[6] = test system: S. aureus Smith (Sensitive); settings: S. aureus Smith (Sensitive)
[7] = test system: E. coli UBMS 88-2 (Sensitive); settings: E. coli UBMS 88-2 (Sensitive)
[8] = test system: S. aureus UBMS 88-7 (tetK); settings: S. aureus UBMS 88-7 (tetK)
[9] = test system: S. aureus UBMS 88-4 (Sensitive); settings: S. aureus UBMS 88-4 (Sensitive)
[10] = test system: S. aureus ATCC 29213 (Sensitive); settings: S. aureus ATCC 29213 (Sensitive)
[11] = test system: S. aureus UBMS 90-2 (tetM); settings: S. aureus UBMS 90-2 (tetM)
[12] = test system: E. coli UBMS 89-2 (Sensitive); settings: E. coli UBMS 89-2 (Sensitive)
[13] = test system: S. aureus UBMS 90-1 (tetM); settings: S. aureus UBMS 90-1 (tetM)
E. faecalis ATCC 29212 = settings: E. faecalis ATCC 29212
E. faecalis 12201 = settings: E. faecalis 12201
E. coli UBMS 89-1 (tetM) = settings: E. coli UBMS 89-1 (tetM)

Compound	MIC (E. coli ATCC 25922) [µg/mL]	MIC [1] [µg/mL]	MIC (E. coli UBMS 88-1 (tetB)) [µg/mL]	MIC [2] [µg/mL]	MIC [3] [µg/mL]	MIC [4] [µg/mL]	MIC [5] [µg/mL]	MIC [6] [µg/mL]	MIC [7] [µg/mL]	MIC [8] [µg/mL]	MIC [9]	MIC [10]	MIC [11] [µg/mL]	MIC [12] [µg/mL]	MIC [13] [µg/mL]	MIC (E. faecalis ATCC 29212) [µg/mL]	MIC (E. faecalis 12201) [µg/mL]	MIC (E. coli UBMS 89-1 (tetM)) [µg/mL]
CN(C)c1cc(NS(=O)(=O)c2cccs2)c(O)c2c1CC1CC3C(N(C)C)C(O)=C(C(N)=O)C(=O)C3(O)C(O)=C1C2=O (stereo not shown) [DD, 7-(Dimethylamino)-9-[(2-thienylsulfonyl)amino)-6-demethyl-6-deoxytetracycline]	4 (≈ 6.47 µM)	4 (≈ 6.47 µM)	32 (≈ 51.7 µM)	0.25 (≈ 0.404 µM)	0.5 (≈ 0.808 µM)	2 (≈ 3.23 µM)	4 (≈ 6.47 µM)	0.03 (≈ 0.0485 µM)	8 (≈ 12.9 µM)	2 (≈ 3.23 µM)	0.5 µg/mL (≈ 0.808 µM)	0.03 µg/mL (≈ 0.0485 µM)	0.25 (≈ 0.404 µM)	16 (≈ 25.9 µM)	1 (≈ 1.62 µM)	0.25 (≈ 0.404 µM)		
CC(=O)Nc1cc(N(C)C)c2c(c1O)C(=O)C1=C(O)[C@]3(O)C(=O)C(C(N)=O)=C(O)[C@@H](N(C)C)[C@@H]3C[C@@H]1C2 [B, 9-(Acetylamino)-7-(dimethylamino)-6-demethyl-6-deoxytetracycline]	2 (≈ 3.89 µM)		>128		0.12 (≈ 0.233 µM)		64 (≈ 124 µM)	0.12 (≈ 0.233 µM)	2 (≈ 3.89 µM)	4 (≈ 7.77 µM)	≦0.06 μg/ml	0.12 µg/mL (≈ 0.233 µM)				0.12 (≈ 0.233 µM)	0.5 (≈ 0.972 µM)	
COc1ccc(C(=O)Nc2cc(N(C)C)c3c(c2O)C(=O)C2=C(O)C4(O)C(=O)C(C(N)=O)=C(O)C(N(C)C)C4CC2C3)cc1 (stereo not shown) [Q, 7-(Dimethylamino)-9-[(4-methoxybenzoyl)amino)-6-demethyl-6-deoxytetracycline]	>32	16 (≈ 26.4 µM)	>32	4 (≈ 6.59 µM)	8 (≈ 13.2 µM)	8 (≈ 13.2 µM)	8 (≈ 13.2 µM)	4 (≈ 6.59 µM)	>32	16 (≈ 26.4 µM)	8 µg/mL (≈ 13.2 µM)	1 µg/mL (≈ 1.65 µM)	8 (≈ 13.2 µM)	>32	8 (≈ 13.2 µM)	8 (≈ 13.2 µM)	8 (≈ 13.2 µM)	
CN(C)c1cc(NS(=O)(=O)c2cccc([N+](=O)[O-])c2)c(O)c2c1CC1CC3C(N(C)C)C(O)=C(C(N)=O)C(=O)C3(O)C(O)=C1C2=O (stereo not shown) [BB]	2 (≈ 3.04 µM)	8 (≈ 12.2 µM)	>32	0.12 (≈ 0.182 µM)		4 (≈ 6.08 µM)	4 (≈ 6.08 µM)	0.25 (≈ 0.38 µM)	4 (≈ 6.08 µM)	4 (≈ 6.08 µM)	1 µg/mL (≈ 1.52 µM)	0.06 µg/mL (≈ 0.0912 µM)	0.5 (≈ 0.76 µM)	16 (≈ 24.3 µM)	2 (≈ 3.04 µM)	0.12 (≈ 0.182 µM)		
CN(C)c1cc(NS(=O)(=O)c2ccc(Cl)cc2)c(O)c2c1CC1CC3C(N(C)C)C(O)=C(C(N)=O)C(=O)C3(O)C(O)=C1C2=O (stereo not shown) [EE, 9-[[(4-Chlorophenyl)sulfonyl]amino)-7-(dimethylamino)-6-demethyl-6-deoxytetracycline]	>32	1 (≈ 1.55 µM)	>32	0.12 (≈ 0.185 µM)	0.12 (≈ 0.185 µM)		0.5 (≈ 0.773 µM)	0.12 (≈ 0.185 µM)	>32	1 (≈ 1.55 µM)	0.12 µg/mL (≈ 0.185 µM)	0.03 µg/mL (≈ 0.0464 µM)	0.12 (≈ 0.185 µM)	>32	0.25 (≈ 0.386 µM)	0.06 (≈ 0.0927 µM)		
CN(C)c1cc(NC(=O)c2ccccc2)c(O)c2c1CC1CC3C(N(C)C)C(O)=C(C(N)=O)C(=O)C3(O)C(O)=C1C2=O (stereo not shown) [P, 9-(Benzoylamino)-7-(dimethylamino)-6-demethyl-6-deoxytetracycline]	>32	8 (≈ 13.9 µM)	>32	1 (≈ 1.73 µM)	4 (≈ 6.94 µM)	4 (≈ 6.94 µM)	16 (≈ 27.7 µM)	1 (≈ 1.73 µM)	>32	8 (≈ 13.9 µM)	4 µg/mL (≈ 6.94 µM)	0.25 µg/mL (≈ 0.434 µM)	4 (≈ 6.94 µM)	>32	4 (≈ 6.94 µM)	4 (≈ 6.94 µM)	8 (≈ 13.9 µM)	
CN(C)c1cc(NS(C)(=O)=O)c(O)c2c1CC1CC3C(N(C)C)C(O)=C(C(N)=O)C(=O)C3(O)C(O)=C1C2=O (stereo not shown) [FF, 7-(Dimethylamino)-9-[(methylsulfonyl)amino]-6-demethyl-6-deoxytetracycline]	2 (≈ 3.63 µM)	16 (≈ 29.1 µM)	8 (≈ 14.5 µM)	0.12 (≈ 0.218 µM)	0.25 (≈ 0.454 µM)		16 (≈ 29.1 µM)	0.12 (≈ 0.218 µM)	2 (≈ 3.63 µM)	8 (≈ 14.5 µM)	0.25 µg/mL (≈ 0.454 µM)	0.03 µg/mL (≈ 0.0545 µM)	0.06 (≈ 0.109 µM)	2 (≈ 3.63 µM)	0.25 (≈ 0.454 µM)	0.06 (≈ 0.109 µM)		
CN(C)c1cc(NS(=O)(=O)c2ccccc2)c(O)c2c1CC1CC3C(N(C)C)C(O)=C(C(N)=O)C(=O)C3(O)C(O)=C1C2=O (stereo not shown) [CC, 7-(Dimethylamino)-9-[(phenylsulfonyl)amino]-6-demethyl-6-deoxytetracycline]	2 (≈ 3.26 µM)	4 (≈ 6.53 µM)	16 (≈ 26.1 µM)	4 (≈ 6.53 µM)	4 (≈ 6.53 µM)	4 (≈ 6.53 µM)	4 (≈ 6.53 µM)	4 (≈ 6.53 µM)	8 (≈ 13.1 µM)	4 (≈ 6.53 µM)	0.03 µg/mL (≈ 0.049 µM)	≦0.015 μg/ml	0.06 (≈ 0.0979 µM)	16 (≈ 26.1 µM)	4 (≈ 6.53 µM)	0.06 (≈ 0.0979 µM)		
COC(=O)Nc1cc(N(C)C)c2c(c1O)C(=O)C1=C(O)[C@]3(O)C(=O)C(C(N)=O)=C(O)[C@@H](N(C)C)C3CC1C2 (stereo partly drawn) [HH, [7S-(7α,10aα)]-[9-(Aminocarbonyl)-4,7-bis(dimethylamino)-5,5a,6,6a,7,10,10a,12-octahydro-1,8,10a,11-tetrahydroxy-10,12-dioxo-2-naphthacenyl]carbamic acid methyl ester]	2 (≈ 3.77 µM)	2 (≈ 3.77 µM)	16 (≈ 30.2 µM)	0.03 (≈ 0.0565 µM)	0.25 (≈ 0.471 µM)	0.25 (≈ 0.471 µM)	2 (≈ 3.77 µM)	0.03 (≈ 0.0565 µM)		0.5 (≈ 0.942 µM)	0.03 µg/mL (≈ 0.0565 µM)	≦0.015 μg/ml	0.25 (≈ 0.471 µM)	4 (≈ 7.54 µM)	1 (≈ 1.88 µM)	0.25 (≈ 0.471 µM)	2 (≈ 3.77 µM)	4 (≈ 7.54 µM)
CN(C)CC(=O)Nc1cc(N(C)C)c2c(c1O)C(=O)C1=C(O)C3(O)C(=O)C(C(N)=O)=C(O)C(N(C)C)C3CC1C2.O=S(=O)(O)O (stereo not shown) [II, 7-(Dimethylamino)-9-[[(dimethylamino)acetyl]amino]-6-demethyl-6-deoxytetracycline sulfate]	0.12	1	0.25	0.06	0.12	0.25	1	0.12		0.06	0.06 µg/mL	0.03 µg/mL	0.06	0.25	0.25	0.03	0.12	0.12
CCN(CC)c1cc(NC=O)c(O)c2c1C[C@H]1C[C@H]3[C@H](N(C)C)C(O)=C(C(N)=O)C(=O)[C@@]3(O)C(O)=C1C2=O.O=S(=O)(O)O.O=S(=O)(O)O [D, 7-(Diethylamino)-9-(formylamino)-6-demethyl-6-deoxytetracycline disulfate]	0.5	4	>32	0.06	0.25		4	0.03	0.5	2	0.12 µg/mL	≦0.015 μg/ml	0.12	0.5	0.5	0.12	1	
